# Experimental data as given in patent publication US20160145247A1, “Aminomethyl-Biaryl Derivatives Complement Factor D inhibitors and uses thereof” (NOVARTIS AG, priority 2013, published 2016).
# Molecular target: T1, factor D (Homo sapiens, UniProt P00746)
# T1 construct: made in house; host or cells: E. coli
# Assay: factor D inhibition assay of Biological Example 2
# Assay type: biochemical
# T1 sequence (P00746 26-253): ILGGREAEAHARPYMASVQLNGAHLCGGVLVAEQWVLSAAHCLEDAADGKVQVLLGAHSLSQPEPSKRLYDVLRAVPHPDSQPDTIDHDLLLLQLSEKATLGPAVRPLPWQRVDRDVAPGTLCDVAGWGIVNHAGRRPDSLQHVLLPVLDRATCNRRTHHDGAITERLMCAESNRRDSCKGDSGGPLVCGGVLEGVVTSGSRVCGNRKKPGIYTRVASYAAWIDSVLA
row,SMILES,IC50 [µM]
1,"NCc1cccc(-c2ccc(Cl)c(C(=O)Nc3ccccc3CC(=O)O)n2)c1 [Example 56-A, 2-(2-(6-(3-(Aminomethyl)phenyl)-3-chloropicolinamido)phenyl)acetic acid]",0.107
2,Cc1ccc(CC(=O)O)c(NC(=O)c2cccc(-c3cc(F)cc(CN)c3)n2)c1 [Example 21-M],0.022
3,NCc1cc(F)cc(-c2cc(Nc3ccn[nH]3)cc(C(=O)Nc3ccccc3CC(=O)O)c2)c1 [Example 79-G],0.022
4,CN(Cc1cc(COc2ccccc2CC(=O)O)cc(-c2cccc(CN)c2)c1)CC(F)(F)F [Example 208-G],0.006
5,"NCc1cc(F)cc(-c2nc(C(=O)Nc3ccccc3CC(=O)O)c(Cl)s2)c1 [Example 30-D, 2-(2-(2-(3-(aminomethyl)-5-fluorophenyl)-5-chlorothiazole-4-carboxamido)phenyl)acetic acid]",0.031
6,NCc1cccc(-c2cc(COc3ccccc3CC(=O)O)cc(-c3ccn[nH]3)c2)c1 [Example 209-B],0.004
7,CCC[C@@H](N)c1cccc(-c2cccc(COc3ccccc3CC(=O)O)c2)n1 [Example 196-A],11.3
8,"NCc1cccc(-c2cc(NCC(F)(F)F)cc(C(=O)Nc3ccccc3CC(=O)O)n2)c1 [Example 54, 2-(2-(6-(3-(Aminomethyl)phenyl)-4-((2,2,2-trifluoroethyl)amino)picolinamido)phenyl)acetic acid]",0.003
9,N[C@H](CO)c1cccc(-c2cc(COc3ccccc3CC(=O)O)cc(OCC(F)(F)F)c2)c1 [Example 115-C],0.005
10,CN(C)C(c1cc(COc2ccccc2CC(=O)O)cc(-c2cccc(CN)c2)c1)C(F)(F)F (stereo not drawn) [Example 208-B],0.027
11,"N#Cc1cc(COc2ccccc2CC(=O)O)cc(-c2cccc(CN)c2)c1 [Example 113-B, 2-(2-((3′-(Aminomethyl)-5-cyano-[1,1′-biphenyl]-3-yl)methoxy)phenyl)acetic acid]",0.03
12,"NCc1cccc(-c2cc(NCc3ccccc3)cc(C(=O)Nc3ccccc3CC(=O)O)n2)c1 [Example 53, 2-(2-(6-(3-(Aminomethyl)phenyl)-4-(benzylamino)picolinamido)phenyl)acetic acid]",0.003
13,"NCc1cccc(-c2nc(C(=O)Nc3ccccc3CC(=O)O)c[nH]2)c1 [Example 43, 2-(2-(2-(3-(Aminomethyl)phenyl)-1H-imidazole-4-carboxamido)phenyl)acetic acid]",1.13
14,"NCc1cccc(-c2cccc(C#Cc3ccccc3CC(=O)O)c2)c1 [Example 16-C, 2-(2-((3′-(Aminomethyl)-[1,1′-biphenyl]-3-yl)ethynyl)phenyl)acetic acid]",0.338
15,"NCc1cccc(-c2cc(-c3ccccc3)cc(C(=O)Nc3ccccc3CC(=O)O)n2)c1 [Example 52, 2-(2-(6-(3-(Aminomethyl)phenyl)-4-phenylpicolinamido)phenyl)acetic acid]",0.007
16,"COC[C@@H](N)c1cccc(-c2cccc(COc3ccccc3CC(=O)O)c2)c1 [Example 169, (S)-2-(2-((3′-(1-Amino-2-methoxyethyl)-[1,1′-biphenyl]-3-yl)methoxy)phenyl)acetic acid]",0.033
17,"NCc1cccc(-c2nc(C(=O)Nc3ccccc3CC(=O)O)cs2)c1 [Example 27, 2-(2-(2-(3-(Aminomethyl)phenyl)thiazole-4-carboxamido)phenyl)acetic acid]",0.05
18,"CNc1cc(C(=O)Nc2ccccc2CC(=O)O)nc(-c2cccc(CN)c2)c1 [Example 46, 2-(2-(6-(3-(aminomethyl)phenyl)-4-(methylamino)picolinamido)phenyl)acetic acid]",0.006
19,NC(c1ccccc1)c1cccc(-c2cccc(COc3ccccc3CC(=O)O)c2)c1 (stereo not drawn) [Example 196-C],0.313
20,"NCc1cccc(-c2cccc(COc3c(Br)cccc3CC(=O)O)c2)c1 [Example 174, 2-(2-((3′-(Aminomethyl)-[1,1′-biphenyl]-3-yl)methoxy)-3-bromophenyl)acetic acid]",0.111
21,CCC[C@@H](N)c1cc(-c2cccc(COc3ccccc3CC(=O)O)c2)ccn1 [Example 196-B],0.206
22,"COCCOc1cc(C(=O)Nc2ccccc2CC(=O)O)cc(-c2cc(F)cc(CN)c2)c1 [Example 73-C, 2-(2-(3′-(Aminomethyl)-5′-fluoro-5-(2-methoxyethoxy)-[1,1′-biphenyl]-3-ylcarboxamido)phenyl)acetic acid]",0.022

# The next lines start with the values.
row,IC50 [µM],SMILES
1,0.099,"C[C@@H](N)c1cccc(-c2cc(COc3ccccc3CC(=O)O)ccc2F)c1 [Example 124, (R)-2-(2-((3′-(1-Aminoethyl)-6-fluoro-[1,1′-biphenyl]-3-yl)methoxy)phenyl)acetic acid]"
2,0.006,"N[C@H](CO)c1cccc(-c2cc(COc3ccccc3CC(=O)O)cc(C(F)(F)F)c2)c1 [Example 114-B, (S)-2-(2-((3′-(1-Amino-2-hydroxyethyl)-5-(trifluoromethyl)-[1,1′-biphenyl]-3-yl)methoxy)phenyl)acetic acid]"
3,0.065,CCC[C@@H](N)c1cccc(-c2cc(COc3ccccc3CC(=O)O)cc(NC[C@@H]3CCCO3)c2)c1F [Example 199-C]
4,0.09,C[C@@H]1CN(Cc2cc(COc3ccccc3CC(=O)O)cc(-c3cccc([C@@H](C)N)c3F)c2)C[C@H](C)O1 [Example 216-AH]
5,0.009,C[C@@H](N)c1cccc(-c2cc(COc3ccccc3CC(=O)O)cc(NCc3ccccn3)c2)c1F [Example 216-T]
6,0.01,C[C@@H](N)c1cccc(-c2cc(COc3ccccc3CC(=O)O)cc(OCCN3CCOCC3)c2)c1F [Example 214-A]
7,0.02,C[C@@H](N)c1cccc(-c2cc(CNC3CC3)cc(COc3ccccc3CC(=O)O)c2)c1F [Example 216-AD]
8,0.013,"C[C@@H](N)c1cccc(-c2cc(CCC3CNCCO3)cc(COc3ccccc3CC(=O)O)c2)c1F (stereo partly drawn) [Example 239-C, 2-(2-((3′-((R)-1-aminoethyl)-2′-fluoro-5-(2-(morpholin-2-yl)ethyl)-[1,1′-biphenyl]-3-yl)methoxy)phenyl)acetic acid]"
9,0.029,"CC(Oc1ccccc1CC(=O)O)c1cccc(-c2cccc(CN)c2F)c1 (racemic) [Example 183, (±)-2-(2-(1-(3′-(Aminomethyl)-2′-fluoro-[1,1′-biphenyl]-3-yl)ethoxy)phenyl)acetic acid]"
10,0.004,"NCc1cccc(-c2cc(COc3ccccc3CC(=O)O)cc(OC[C@H]3CCCO3)c2)c1F [Example 234-B, (R)-2-(2-((3′-(aminomethyl)-2′-fluoro-5-((tetrahydrofuran-2-yl)methoxy)-[1,1′-biphenyl]-3-yl)methoxy)phenyl)acetic acid]"
11,0.01,C[C@@H](N)c1cccc(-c2cc(COc3ccccc3CC(=O)O)cc(C(C)(C)O)c2)c1 [Example 120-H]
12,4.6,"NCc1ccc(F)c(-c2cccc(C(=O)Nc3ccccc3CC(=O)O)c2)c1 [Example 4-B, 2-(2-(5′-(Aminomethyl)-2′-fluoro-[1,1′-biphenyl]-3-ylcarboxamido)phenyl)acetic acid]"
13,0.005,C[C@@H](N)c1cccc(-c2cc(COc3ccccc3CC(=O)O)cc(OCc3nccs3)c2)c1F [Example 214-B]
14,0.006,NCc1cc(F)cc(-c2cc(NC[C@@H]3CCCO3)cc(C(=O)Nc3ccccc3CC(=O)O)c2)c1 [Example 79-F]
15,0.093,COC(C)c1cc(COc2ccccc2CC(=O)O)cc(-c2cccc([C@@H](C)N)c2F)c1 (stereo partly drawn) [Example 120-D]
16,0.023,CC(O)c1cc(COc2ccccc2CC(=O)O)cc(-c2cccc([C@H](C)N)c2F)c1 (stereo partly drawn) [Example 120-J]
17,1.99,NCc1ccc(F)c(-c2cccc(COc3ccccc3CC(=O)O)c2)c1 [Example 138-E]
18,0.009,"NCc1cc(F)cc(-c2cc(OC[C@@H]3CCCO3)cc(C(=O)Nc3ccccc3CC(=O)O)c2)c1 [Example 15-B, (S)-2-(2-(3′-(Aminomethyl)-5′-fluoro-5-((tetrahydrofuran-2-yl)methoxy)-[1,1′-biphenyl]-3-ylcarboxamido)phenyl)acetic acid]"
19,0.002,NCc1nccc(-c2cccc(COc3ccccc3CC(=O)O)c2)c1F [Example 142-I]
20,0.013,N[C@H](CCO)c1cccc(-c2cccc(COc3ccccc3CC(=O)O)c2)c1F [Example 190-J]
21,0.007,"Cc1cc(COc2ccccc2CC(=O)O)cc(-c2cccc([C@H](N)CO)c2)c1 [Example 112-B, (S)-2-(2-((3′-(1-Amino-2-hydroxyethyl)-5-methyl-[1,1′-biphenyl]-3-yl)methoxy)phenyl)acetic acid]"
22,0.003,N[C@H](CO)c1cccc(-c2cc(F)cc(COc3ccccc3CC(=O)O)c2)c1 [Example 115-A]
23,0.823,"C[C@@H](N)c1cccc(-c2cccc(C(=O)Nc3ccccc3CC(=O)O)c2)c1 [Example 90, (R)-2-(2-(3′-(1-aminoethyl)-[1,1′-biphenyl]-3-ylcarboxamido)phenyl)acetic acid]"
24,0.008,C[C@@H](N)c1cccc(-c2cc(COc3ccccc3CC(=O)O)cc(COC3CCOc4ccc(Cl)cc43)c2)c1 (stereo partly drawn) [Example 120-T]
25,0.19,COCc1cc(COc2ccccc2CC(=O)O)cc(-c2cccc([C@H](C)N)c2)c1 [Example 120-K]
26,0.19,"N[C@H](CO)c1cc(Cl)cc(-c2cccc(COc3ccccc3CC(=O)O)c2)c1 [Example 277-C, (S)-2-(2-((3′-(1-Amino-2-hydroxyethyl)-5′-chloro-[1,1′-biphenyl]-3-yl)methoxy)phenyl)acetic acid]"
27,0.039,"C[C@H](N)c1cccc(-c2cc(COc3ccccc3CC(=O)O)cc(OCC3(C)CC3)c2)c1F [Example 260, (S)-2-(2-((3′-(1-aminoethyl)-2′-fluoro-5-((1-methylcyclopropyl)methoxy)-[1,1′-biphenyl]-3-yl)methoxy)phenyl)acetic acid]"
28,0.022,"CCC[C@@H](N)c1cccc(-c2cc(COc3ccccc3CC(=O)O)cc(-c3ccccc3)c2)c1F [Example 200-B, (R)-2-(2-((3-(1-aminobutyl)-2-fluoro-[1,1′:3′,1″-terphenyl]-5′-yl)methoxy)phenyl)acetic acid]"
29,0.019,C[C@@H](N)c1cccc(-c2cc(NC[C@H]3CCCO3)c3c(c2)C(Oc2ccccc2CC(=O)O)CCC3)c1F (stereo partly drawn) [Example 216-Y]
